Molecular target: T1, Tyrosine-protein phosphatase non-receptor type 1 (Homo sapiens, UniProt P18031)
T1 sequence (P18031 whole entry): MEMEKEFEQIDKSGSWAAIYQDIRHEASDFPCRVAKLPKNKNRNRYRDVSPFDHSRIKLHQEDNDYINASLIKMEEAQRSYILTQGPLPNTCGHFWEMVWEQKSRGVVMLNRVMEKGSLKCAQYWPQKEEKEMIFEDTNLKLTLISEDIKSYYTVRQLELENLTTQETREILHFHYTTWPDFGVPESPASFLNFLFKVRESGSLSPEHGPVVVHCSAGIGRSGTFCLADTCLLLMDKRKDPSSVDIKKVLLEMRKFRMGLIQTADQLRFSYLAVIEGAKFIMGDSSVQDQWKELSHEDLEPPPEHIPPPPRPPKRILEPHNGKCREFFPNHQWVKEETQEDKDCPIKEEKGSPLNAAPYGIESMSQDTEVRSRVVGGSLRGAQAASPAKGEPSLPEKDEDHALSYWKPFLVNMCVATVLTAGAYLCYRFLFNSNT
Test: Inhibition of Homo sapiens (human) PTP1B expressed in Escherichia coli using PNPP as substrate

Row | Structure (SMILES) | IC50
1 | NC(=O)[C@H](Cc1ccc(C2=CC(=O)NS2(=O)=O)cc1)NC(=O)[C@@H](N)Cc1ccccc1 | 100 µM
2 | COc1ccc(CC(=O)N[C@@H](Cc2ccccc2)C(=O)N[C@@H](Cc2ccc(C3CC(=O)NS3(=O)=O)cc2)C(N)=O)cc1 (stereo partly specified) | 0.17 µM
3 | CC(C)(C)OC(=O)N[C@@H](Cc1ccc(C2CC(=O)NS2(=O)=O)cc1)C(N)=O (stereo partly specified) | 70 µM
4 | CC(=O)N[C@@H](Cc1ccc(C2CC(=O)NS2(=O)=O)cc1)C(N)=O (stereo partly specified) | 100 µM
5 | CC(=O)N[C@@H](Cc1ccccc1)C(=O)N[C@@H](Cc1ccc(C2CC(=O)NS2(=O)=O)cc1)C(N)=O (stereo partly specified) | 0.661 µM
6 | NC(=O)[C@H](Cc1ccc(C2CC(=O)NS2(=O)=O)cc1)NC(=O)[C@@H](N)Cc1ccccc1 (stereo partly specified) | 100 µM
7 | CC(=O)N[C@@H](Cc1ccccc1)C(=O)N[C@@H](Cc1ccc([C@@H]2CC(=O)NS2(=O)=O)cc1)C(N)=O | 0.18 µM
8 | NC(=O)[C@H](Cc1ccc(C2CC(=O)NS2(=O)=O)cc1)NC(=O)[C@H](Cc1ccccc1)NC(=O)CCc1ccccc1 (stereo partly specified) | 0.34 µM
9 | NC(=O)[C@H](Cc1ccc(C2CC(=O)NS2(=O)=O)cc1)NC(=O)[C@H](Cc1ccccc1)NC(=O)Cc1ccc(O)cc1 (stereo partly specified) | 0.17 µM
10 | NC(=O)[C@@H](N)Cc1ccc(C2CC(=O)NS2(=O)=O)cc1 (stereo partly specified) | 100 µM
11 | NC(=O)[C@H](Cc1ccc(C2CC(=O)NS2(=O)=O)cc1)NC(=O)[C@H](Cc1ccccc1)NC(=O)Cc1ccccc1 (stereo partly specified) | 0.18 µM
12 | CCCCCNC(=O)[C@H](Cc1ccc(N2CC(=O)NS2(=O)=O)cc1)NC(=O)[C@H](Cc1ccccc1)NC(=O)Cc1ccc(OC)cc1 | 1.5 µM
13 | CCCCCNC(=O)[C@H](Cc1ccc(C2=CS(=O)(=O)NC2=O)cc1)NC(=O)[C@H](Cc1ccccc1)NC(=O)Cc1ccc(OC)cc1 | 6 µM

The remaining lines, values ahead:

Row | IC50 | Structure (SMILES)
14 | 1.6 µM | COc1ccc(CC(=O)N[C@@H](Cc2ccccc2)C(=O)N[C@@H](Cc2ccc(C3=CC(=O)NS3(=O)=O)cc2)C(N)=O)cc1
15 | 1.8 µM | NC(=O)[C@H](Cc1ccc(C2=CC(=O)NS2(=O)=O)cc1)NC(=O)[C@H](Cc1ccccc1)NC(=O)c1ccccc1
16 | 0.17 µM | NC(=O)[C@H](Cc1ccc(C2CC(=O)NS2(=O)=O)cc1)NC(=O)[C@H](Cc1ccccc1)NC(=O)Cc1ccc(C(F)(F)F)cc1 (stereo partly specified)
17 | 1.4 µM | NC(=O)[C@H](Cc1ccc(C2=CC(=O)NS2(=O)=O)cc1)NC(=O)[C@H](Cc1ccccc1)NC(=O)Cc1ccc(C(F)(F)F)cc1
18 | 1.2 µM | CCCCCNC(=O)[C@H](Cc1ccc(C2=CC(=O)NS2(=O)=O)cc1)NC(=O)[C@H](Cc1ccccc1)NC(=O)Cc1ccc(OC)cc1
19 | 1 µM | NC(=O)[C@H](Cc1ccc(C2=CC(=O)NS2(=O)=O)cc1)NC(=O)[C@H](Cc1ccccc1)NC(=O)Cc1ccccc1
20 | 2.7 µM | NC(=O)[C@H](Cc1ccc(C2=CC(=O)NS2(=O)=O)cc1)NC(=O)[C@H](Cc1ccccc1)NC(=O)CCc1ccccc1
21 | 0.791 µM | NC(=O)[C@H](Cc1ccc(C2=CC(=O)NS2(=O)=O)cc1)NC(=O)[C@H](Cc1ccccc1)NC(=O)Cc1ccc(O)cc1

Reference: ChEMBL document CHEMBL3045376, “Pharmacophore modeling and 3D QSAR analysis of isothiazolidinedione derivatives as PTP1B inhibitors” (Med Chem Res, 2013)
